# Assay results from ChEMBL document CHEMBL1127822, “6-Alkyl- and 6-arylandrost-4-ene-3,17-diones as aromatase inhibitors. Synthesis and structure-activity relationships” (J Med Chem, 1994).
# Molecular target: T1, Aromatase (Homo sapiens, UniProt P11511)
# T1 sequence (P11511 whole entry): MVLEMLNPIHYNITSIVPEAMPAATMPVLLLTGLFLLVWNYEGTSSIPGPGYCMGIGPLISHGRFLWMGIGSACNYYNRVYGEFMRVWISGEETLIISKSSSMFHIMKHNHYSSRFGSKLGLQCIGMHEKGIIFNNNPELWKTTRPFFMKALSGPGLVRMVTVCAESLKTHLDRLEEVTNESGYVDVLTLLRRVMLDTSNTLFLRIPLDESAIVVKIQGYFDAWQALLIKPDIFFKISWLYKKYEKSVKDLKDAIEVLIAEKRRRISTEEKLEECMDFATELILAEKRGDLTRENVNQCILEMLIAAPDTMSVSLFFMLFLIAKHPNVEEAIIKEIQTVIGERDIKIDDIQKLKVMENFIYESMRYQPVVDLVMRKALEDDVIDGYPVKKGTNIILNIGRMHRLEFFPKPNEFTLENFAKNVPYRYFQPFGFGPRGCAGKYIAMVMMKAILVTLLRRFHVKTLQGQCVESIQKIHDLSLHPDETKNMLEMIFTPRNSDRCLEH
# Assay: Binding affinity for human placental microsome Cytochrome P450 19A1
row,Compound,Ki [nM]
1,CC[C@H]1CC2C3CCC(=O)C3(C)CCC2C2(C)CCC(=O)C=C12 (some centres not stated),4.7
2,CCCC[C@@H]1CC2C3CCC(=O)C3(C)CCC2C2(C)CCC(=O)C=C12 (some centres not stated),8.8
3,CC[C@@H]1CC2C3CCC(=O)C3(C)CCC2C2(C)CCC(=O)C=C12 (some centres not stated),1.4
4,C[C@H]1CC2C3CCC(=O)C3(C)CCC2C2(C)CCC(=O)C=C12 (some centres not stated),5.6
5,C#C[C@@H]1CC2C3CCC(=O)C3(C)CCC2C2(C)CCC(=O)C=C12 (some centres not stated),62
6,CC12CCC3C(C[C@@H](c4ccccc4)C4=CC(=O)CCC43C)C1CCC2=O (some centres not stated),37
7,CCC[C@@H]1CC2C3CCC(=O)C3(C)CCC2C2(C)CCC(=O)C=C12 (some centres not stated),4.6
8,C[C@@H]1CC2C3CCC(=O)C3(C)CCC2C2(C)CCC(=O)C=C12 (some centres not stated),11

# Molecular target: T1, Aromatase
# Assay: Inhibitory concentration was tested on Cytochrome P450 19A1 in human placental microsomes 20 (microg) of protein incubated for 20 min
# Set-up: species or system Placenta
row,Compound,IC50 [nM]
1,CC[C@H]1CC2C3CCC(=O)C3(C)CCC2C2(C)CCC(=O)C=C12 (some centres not stated),260
2,CCCC[C@@H]1CC2C3CCC(=O)C3(C)CCC2C2(C)CCC(=O)C=C12 (some centres not stated),510
3,CC(C)[C@@H]1CC2C3CCC(=O)C3(C)CCC2C2(C)CCC(=O)C=C12 (some centres not stated),1100
4,C=C[C@@H]1CC2C3CCC(=O)C3(C)CCC2C2(C)CCC(=O)C=C12 (some centres not stated),320
5,CC12CCC3C(C[C@H](c4ccccc4)C4=CC(=O)CCC43C)C1CCC2=O (some centres not stated),1100
6,CC12CCC3C(C[C@@H](Cc4ccccc4)C4=CC(=O)CCC43C)C1CCC2=O (some centres not stated),4000
7,CCCC[C@H]1CC2C3CCC(=O)C3(C)CCC2C2(C)CCC(=O)C=C12 (some centres not stated),790
8,CC[C@@H]1CC2C3CCC(=O)C3(C)CCC2C2(C)CCC(=O)C=C12 (some centres not stated),140
9,CC(C)[C@H]1CC2C3CCC(=O)C3(C)CCC2C2(C)CCC(=O)C=C12 (some centres not stated),1400
10,CC12CCC3C(C[C@H](Cc4ccccc4)C4=CC(=O)CCC43C)C1CCC2=O (some centres not stated),660
11,C[C@H]1CC2C3CCC(=O)C3(C)CCC2C2(C)CCC(=O)C=C12 (some centres not stated),350
12,CCC[C@H]1CC2C3CCC(=O)C3(C)CCC2C2(C)CCC(=O)C=C12 (some centres not stated),390
13,C#C[C@@H]1CC2C3CCC(=O)C3(C)CCC2C2(C)CCC(=O)C=C12 (some centres not stated),1900
14,CC12CCC3C(C[C@@H](c4ccccc4)C4=CC(=O)CCC43C)C1CCC2=O (some centres not stated),1700
15,CCC[C@@H]1CC2C3CCC(=O)C3(C)CCC2C2(C)CCC(=O)C=C12 (some centres not stated),240
16,C[C@@H]1CC2C3CCC(=O)C3(C)CCC2C2(C)CCC(=O)C=C12 (some centres not stated),720

# Molecular target: T1, Aromatase
# Assay: Binding affinity for human placental microsome aromatase Cytochrome P450 19A1
row,Compound,Ki [nM]
1,CC(C)[C@@H]1CC2C3CCC(=O)C3(C)CCC2C2(C)CCC(=O)C=C12 (some centres not stated),22
2,C=C[C@@H]1CC2C3CCC(=O)C3(C)CCC2C2(C)CCC(=O)C=C12 (some centres not stated),5.1
3,CC12CCC3C(C[C@H](c4ccccc4)C4=CC(=O)CCC43C)C1CCC2=O (some centres not stated),21
4,CC12CCC3C(C[C@@H](Cc4ccccc4)C4=CC(=O)CCC43C)C1CCC2=O (some centres not stated),63
5,CCCC[C@H]1CC2C3CCC(=O)C3(C)CCC2C2(C)CCC(=O)C=C12 (some centres not stated),12
6,CC(C)[C@H]1CC2C3CCC(=O)C3(C)CCC2C2(C)CCC(=O)C=C12 (some centres not stated),31
7,CC12CCC3C(C[C@H](Cc4ccccc4)C4=CC(=O)CCC43C)C1CCC2=O (some centres not stated),10
8,CCC[C@H]1CC2C3CCC(=O)C3(C)CCC2C2(C)CCC(=O)C=C12 (some centres not stated),6.7
